Measured values published in patent publication US5681823A, “P^1, P^4 -dithio-P^2 -P^3 -monochloromethylene 5', 5'"-diadenosine P^1, P^4 -tetraphosphate as antithrombotic agent” (PRP Inc., priority 1996, dated 1997).

Assays:
[1] = system: ADP and collagen induced platelet aggregation; experiment: Platelet aggregation in lumiaggregometer (ADP or collagen); assay type: cell-based, human; settings: for IC50: Homo sapiens, Platelet, lumiaggregometer
Experimental: (§1) The effects of thio-CHCl-AP4 A and the reference agent on both ADP and collagen induced platelet aggregation, and release reaction were tested in a lumiaggregometer. Normal human PRP was separated from sodium […] anticoagulated (0.38%) blood. Platelet aggregation and release reaction induced by 5 μM ADP or 1 μg collagen/ml. The lumiaggregometer was equipped to assay both platelet aggregation and the luciferase reaction of ATP simultaneously a) in the absence of agent (control); and b) in the presence of various concentrations of thio-CHCl-AP4 A or CHCl-AP4 A. The measured amount of ATP released from the activated platelets by the agonist represents the release reaction. The luminescence produced by the luciferin-luciferase reaction was linear with respect to the amount of ATP released.

[2] = system: Platelet release reaction; experiment: Platelet release reaction (ATP, luciferin-luciferase, lumiaggregometer); assay type: cell-based, human; settings: for IC50: Homo sapiens, Platelet, lumiaggregometer
Experimental: as §1

[3] = system: fibrinogen receptor (GPIIb/IIIa); experiment: Fibrinogen binding sites on ADP-activated platelets (FITC-anti-fgn, flow cytometer); assay type: cell-based, human; settings: for % binding (fibrinogen bound on ADP-activated platelets): 5 μM ADP
Experimental: Platelet responses to the agonists include in addition to aggregation a) release reaction, b) fibrinogen receptor silos (GPIIb/IIIa) and, c) platelet factor 3 activation. The effects of thio-CHCl-AP4 A and the reference agent (CHCl-AP4 A, compound E10 of Zamecnik '550) were tested on each of these responses.
Platelet surface receptors for fibrinogen are known to be increased by activation. The effects of thio-CHCl-AP4 A and CHCl-AP4 A on fibrinogen binding sites of activated platelets were assayed by means of Fluorescein isothiocyanate conjugated antifibrinogen antibody (FITC-anti-fgn) techniques in a flow cytometer (FACS, Becton-Dickinson). PRP was used at 1:20 final dilution. Platelets were activated by ADP in the presence or absence of the agents at 22° C. for 5 min. After incubation of activated platelets with FITC-Anti-Fgn at 22° C. for 10 min., 0.5 ml of 0.2% formyl saline (0.2% formaldehyde in 0.9% NaCl) was added to inhibit further activation. Samples included platelets that were a) unstimulated; b) stimulated with 5 μM ADP; c) exposed to agents (CHCl-AP4 A or thio-CHCl-AP4 A) for 5 minutes before ADP stimulation.

[4] = system: platelet cAMP level; experiment: Level of intracellular platelet cAMP (etheno-cAMP, HPLC); assay type: cell-based, human; settings: for platelet cAMP level: 37° C., 5 min, control 31.6; for effect on the platelet cAMP level: in words
Experimental: (§2) Unless otherwise provided below, the experimental procedures were performed according to the procedures provided in U.S. Pat. No. 5,049.550 (Zamecnik '550), the entire contents of which are incorporated herein by reference. Some alternative procedures (e.g., release reaction, PF3 assays) and a number of additional studies also are provided (e.g., cytoplasmic calcium mobilization, fibrinogen binding site, agonists other than ADP, platelet cAMP and distribution of CHCl-AP4 A into blood components). Blood was collected in a 0.1 volume of 3.8% sodium citrate from healthy human volunteers who had abstained from antiplatelet agents for at least 10 days. Platelet rich plasma (PRP) was separated by a gradual centrifugation and adjusted to 3.3×10^8 platelets per ml plasma. PRP has been utilized in the Examples unless otherwise stated.
The inhibitory effect of cAMP on platelet aggregation has been known as a counteraction of calcium ion mobilization. Accordingly, the inhibitory effects of the agents with respect to a cAMP mediated mechanism was tested. PRP was incubated with saline (control), agents (at 20 μM and 100 μM), or forskolin (10 μM) at 37° C. for 5 min. After incubation, extracts were made using Ba(OH)2 and ZnSO4. Cyclic AMP in the extracts was converted into the etheno-cAMP derivative, and the levels were estimated by HPLC using a fluorescence detector (W. Wojcik et al., J. Cyclic Nucleotide Res. 7:27-35 (1981)). The level of cAMP in an unknown extract was determined by extrapolation from a standard graph. A linear relationship between the cAMP level in the extracted samples and fluorescence detection was observed. […] However, this increase may not be a specific effect. Although adenosine contamination in the tested AP4 A agents was not detected, it is possible that either cellular adenosine nucleotide metabolic products or contaminated adenosine in the tested agents may be responsible for the elevated cAMP level.

[5] = system: platelet aggregation; experiment: Platelet aggregation induced by ADP and agonists other than ADP; assay type: cell-based, human; settings: for IC50: Homo sapiens, Platelet; for effect on collagen-induced aggregation: agonist collagen, in words; for effect on ristocetin-induced platelet aggregation: agonist ristocetin; for effect on thrombin-induced platelet aggregation: agonist thrombin
Experimental: as §2
The release reaction appears to be a unique response following platelet activation. ADP, among several platelet constituents, appears to play an important role in the enhancement of activation. We have examined the role of ADP that is released in platelet aggregation induced by other agonists including arachidonic acid, collagen, epinephrine, thrombin and ristocetin. Platelet aggregability induced by a given concentration of agonists was approximately 60-80% in absence of agents. […] This finding supports the above-described observations of the inhibitory effects of the agents on the release reaction.

[6] = system: ADP-induced platelet aggregation; experiment: Time-dependent effects on ADP-induced aggregation (stability of the agents by functional assay in PRP); assay type: cell-based, human; settings: for ADP-induced aggregation: 10 μM ADP; for stability of inhibitory effect / agent in PRP: 37° C., up to 3 hours, in words
Experimental: as §2
To observe the stability of the agents by functional assay, PRP was incubated with 2.51 μM thio-CHCl-AP4 A or 5 μM CHCl-AP4 A at 37° C. for 3 hours. The concentrations of inhibiting agents used in this experiment were relatively low, especially for the thio compound. Samples taken at the times indicated were tested for ADP-induced (10 μM) aggregation.

[7] = Distribution of ^125 I-labeled CHCl-AP4 A: plasma & washes; assay type: binding, human; settings: 23 μM, 22° C., 30 minutes; mean of two
Experimental: There are, however, a variety of purinoceptors on other cell types. AP4 A analogues may bind not only to platelets but also to the erythrocytes and leukocytes when whole blood is treated with the agents. […] Platelets were separated by a gradual centrifugation, the packed red cells with buffy coats (leukocytes) were mixed, and fractionated by means of histopaque gradient separation (A. Boyum, Scand J. Clin. Lab. Invest. 21(suppl 97):77 (1968)). The cell fractions were washed twice and final suspensions were counted for cell number and the radioactivity. Percent distribution was calculated based on the CBC data of whole blood. Binding sites are expressed in the values per cells.

[8] = system: ADP-induced platelet aggregation; settings: reference agent, kinetic study demonstrated previously (PNAS 1992); read-out: inhibition constant (Ki); cited from earlier work
[9] = agonist Arachidonic Acid (1 mM)

Structure (SMILES) | IC50 ([1]; agonist 5 μM ADP) [µM] | IC50 ([1]; agonist collagen 1 μg/ml) [µM] | IC50 ([2]; agonist 5 μM ADP) [µM] | IC50 ([2]; agonist collagen 1 μg/ml) [µM] | % binding (fibrinogen bound on ADP-activated platelets) ([3]; 2.5 μM agent) [% binding] | % binding (fibrinogen bound on ADP-activated platelets) ([3]; 5.0 μM agent) [% binding] | platelet cAMP level ([4]; 20 μM agent) [nM] | effect on the platelet cAMP level ([4]; 20 μM) | platelet cAMP level ([4]; 100 μM agent) [nM] | effect on the platelet cAMP level ([4]; 100 μM) | IC50 ([5]; agonist ADP (5 μM)) [µM] | IC50 [5, 9] [µM] | IC50 ([5]; agonist Collagen (μg)) [µM] | IC50 ([5]; agonist Epinephrine (10 μM)) [µM] | effect on collagen-induced aggregation [5] | effect on ristocetin-induced platelet aggregation [5] | effect on thrombin-induced platelet aggregation [5] | stability of inhibitory effect / agent in PRP [6] | also measured
Nc1ncnc2c1ncn2[C@@H]1O[C@H](COP(=O)(O)OP(=O)(O)C(Cl)P(=O)(O)OP(=O)(O)OC[C@H]2O[C@@H](n3cnc4c(N)ncnc43)[C@H](O)[C@@H]2O)[C@@H](O)[C@H]1O (stereo partly drawn) [CHCl-AP4 A] | 14 | > 100 | 4.5 | 35 | 70.9 | 41.3 | 30.6 | no effect | 56.7 | moderate increase | 3.28 | 19 | > 100 | 24 | unaffected | Neither thio-CHCl-AP4 A nor CHCl-AP4 A affected | Neither thio-CHCl-AP4 A nor CHCl-AP4 A affected | becomes unstable when it is kept in PRP more than 60 minutes at 37 °C | effect on collagen-induced aggregation ([1]; agonist collagen, in words): not inhibited; effect on collagen-induced release reaction ([2]; agonist collagen, in words): inhibited; % binding (fibrinogen bound on ADP-activated platelets) ([3]; 7.5 μM agent): 36.1 % binding; % binding (fibrinogen bound on ADP-activated platelets) ([3]; 10 μM agent): 23.8 % binding; ADP-induced aggregation ([6]; 5 μM agent, 0 min in PRP at 37° C., without agent 82%): 13%; ADP-induced aggregation ([6]; 5 μM agent, 60 min in PRP at 37° C., without agent 69%): 31%; ADP-induced aggregation ([6]; 5 μM agent, 120 min in PRP at 37° C., without agent 59%): 47%; ADP-induced aggregation ([6]; 5 μM agent, 180 min in PRP at 37° C., without agent 43%): 42%; Distribution (%) [7]: 95.5%; Ki [8]: 1100 nM
Nc1ncnc2c1ncn2[C@@H]1O[C@H](COP(O)(=S)OP(=O)(O)C(Cl)P(=O)(O)OP(O)(=S)OC[C@H]2O[C@@H](n3cnc4c(N)ncnc43)[C@H](O)[C@@H]2O)[C@@H](O)[C@H]1O (stereo partly drawn) [Thio-CHCl-AP4 A, P^1, P^4 -dithio -P^2 -P^3 monochloromethylene 5', 5'" diadenosine P^1, P^4 -tetraphosphate] | 1.6 | 9 | 0.7 | 1.7 | 9.9 | 5.3 | 28.6 | no effect | 54.4 | moderate increase | 0.81 | 9.12 | 9 | 5.25 | detectable inhibitory effect | Neither thio-CHCl-AP4 A nor CHCl-AP4 A affected | Neither thio-CHCl-AP4 A nor CHCl-AP4 A affected | very stable for at least a 3 hour period | inhibition of fibrinogen bound on ADP-activated platelets ([3]; compared to CHCl-AP4 A, in words): inhibited preferentially; ADP-induced aggregation ([6]; 2.5 μM agent, 0 min in PRP at 37° C., without agent 82%): 21%; ADP-induced aggregation ([6]; 2.5 μM agent, 60 min in PRP at 37° C., without agent 69%): 7%; ADP-induced aggregation ([6]; 2.5 μM agent, 120 min in PRP at 37° C., without agent 59%): 5%; ADP-induced aggregation ([6]; 2.5 μM agent, 180 min in PRP at 37° C., without agent 43%): 6%
